Test results as given in ChEMBL document CHEMBL3832087, “DailyMed|setid=a60f39f6-d590-4b00-8751-7f12b7ec5385 | ZAFIRLUKAST- zafirlukast tablet, film coated|American Health Packaging”.
Values joined by “and” are separate entries in the source; they are usually repeats but may differ in a detail not shown here. Equal entries are not always repeated.

Experiments:
Assay type in all cases: ADME, organism-based
[1] = (§1) Evaluation of pharmacokinetic parameters for Zafirlukast following single oral administration to healthy boys and girls.; set-up: dose 20 mg, route oral; details: both, human, in vivo, dose 20 mg, dosed compound id 45, dosed compound name ZAFIRLUKAST, regimen Single dose, route oral, tissue Plasma
[2] = system: Homo sapiens; assay: as §1; set-up: dose 20 mg, route oral; details: in vivo, po, dosed compound id 45, dosed compound name ZAFIRLUKAST, regimen Single dose, tissue Plasma; for CL/F / Tmax: dose 20 mg
[3] = (§2) Evaluation of pharmacokinetic parameters for Zafirlukast following oral administration of Zafirlukast tablets in subjects of varying health status.; details: human, dosed compound id 45, dosed compound name ZAFIRLUKAST, tissue Plasma
[4] = system: Homo sapiens; assay: as §2; details: in vivo, po, dosed compound id 45, dosed compound name ZAFIRLUKAST, gender male and female, tissue Plasma

Tmax ([1]; gender male and female): 2.1 h
half-life [1]: 13.3 h
CL/F ([2]; gender male and female): 9.2 L/h and 11.4 L/h
Tmax ([2]; gender male and female): 2.5 h
CL/F ([2]; gender male): 19.4 L/h
Tmax ([2]; gender male): 2 h
AUC ([2]; gender male and female): 2458 ng·h/mL and 2027 ng·h/mL
Cmax ([2]; gender male and female): 756 ng/mL and 601 ng/mL
AUC ([2]; gender male): 1137 ng·h/mL
Cmax ([2]; gender male): 326 ng/mL
fraction unbound ([3]; read-out: Protein binding): 0.01
half-life ([3]; in vivo, gender male and female): 10 h
Tmax ([3]; in vivo): 3 h
Vd/F ([3]; in vivo, read-out: Vss/F): 70 L
t1/2 [4]: 8 h and 16 h and 10 h
Compound: COc1cc(C(=O)NS(=O)(=O)c2ccccc2C)ccc1Cc1cn(C)c2ccc(NC(=O)OC3CCCC3)cc12 [ZAFIRLUKAST]
